Reference: patent US20240025884A1 (Dong-A ST Co., Ltd., priority 2022, published 2024)

Biological target: GCN2 (Homo sapiens (Human), UniProt Q9P2K8)
Assay: GCN2 Biochemical Assay (TR-FRET, GFP-eIF2S1 substrate phosphorylation)
Conditions: read-out: IC50 (GCN2 Inhibitory Activity)
Method in brief: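 TR-FRET readout (Ex 340, Em 490/520 nm) after 2–3 h with Tb-labelled phospho-eIF2S1 antibody in stop mix, following a 70 min room-temperature kinase step. Reaction: in-house GCN2, GFP-eIF2S1, ATP, tRNA in Tris pH 7.5 (2× stocks 1.6 nM, 50 nM, 0.2 mM); compounds tested at 10 concentrations, with a phospho-substrate artifact counter-plate.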

Chain of GCN2 (Q9P2K8 whole entry): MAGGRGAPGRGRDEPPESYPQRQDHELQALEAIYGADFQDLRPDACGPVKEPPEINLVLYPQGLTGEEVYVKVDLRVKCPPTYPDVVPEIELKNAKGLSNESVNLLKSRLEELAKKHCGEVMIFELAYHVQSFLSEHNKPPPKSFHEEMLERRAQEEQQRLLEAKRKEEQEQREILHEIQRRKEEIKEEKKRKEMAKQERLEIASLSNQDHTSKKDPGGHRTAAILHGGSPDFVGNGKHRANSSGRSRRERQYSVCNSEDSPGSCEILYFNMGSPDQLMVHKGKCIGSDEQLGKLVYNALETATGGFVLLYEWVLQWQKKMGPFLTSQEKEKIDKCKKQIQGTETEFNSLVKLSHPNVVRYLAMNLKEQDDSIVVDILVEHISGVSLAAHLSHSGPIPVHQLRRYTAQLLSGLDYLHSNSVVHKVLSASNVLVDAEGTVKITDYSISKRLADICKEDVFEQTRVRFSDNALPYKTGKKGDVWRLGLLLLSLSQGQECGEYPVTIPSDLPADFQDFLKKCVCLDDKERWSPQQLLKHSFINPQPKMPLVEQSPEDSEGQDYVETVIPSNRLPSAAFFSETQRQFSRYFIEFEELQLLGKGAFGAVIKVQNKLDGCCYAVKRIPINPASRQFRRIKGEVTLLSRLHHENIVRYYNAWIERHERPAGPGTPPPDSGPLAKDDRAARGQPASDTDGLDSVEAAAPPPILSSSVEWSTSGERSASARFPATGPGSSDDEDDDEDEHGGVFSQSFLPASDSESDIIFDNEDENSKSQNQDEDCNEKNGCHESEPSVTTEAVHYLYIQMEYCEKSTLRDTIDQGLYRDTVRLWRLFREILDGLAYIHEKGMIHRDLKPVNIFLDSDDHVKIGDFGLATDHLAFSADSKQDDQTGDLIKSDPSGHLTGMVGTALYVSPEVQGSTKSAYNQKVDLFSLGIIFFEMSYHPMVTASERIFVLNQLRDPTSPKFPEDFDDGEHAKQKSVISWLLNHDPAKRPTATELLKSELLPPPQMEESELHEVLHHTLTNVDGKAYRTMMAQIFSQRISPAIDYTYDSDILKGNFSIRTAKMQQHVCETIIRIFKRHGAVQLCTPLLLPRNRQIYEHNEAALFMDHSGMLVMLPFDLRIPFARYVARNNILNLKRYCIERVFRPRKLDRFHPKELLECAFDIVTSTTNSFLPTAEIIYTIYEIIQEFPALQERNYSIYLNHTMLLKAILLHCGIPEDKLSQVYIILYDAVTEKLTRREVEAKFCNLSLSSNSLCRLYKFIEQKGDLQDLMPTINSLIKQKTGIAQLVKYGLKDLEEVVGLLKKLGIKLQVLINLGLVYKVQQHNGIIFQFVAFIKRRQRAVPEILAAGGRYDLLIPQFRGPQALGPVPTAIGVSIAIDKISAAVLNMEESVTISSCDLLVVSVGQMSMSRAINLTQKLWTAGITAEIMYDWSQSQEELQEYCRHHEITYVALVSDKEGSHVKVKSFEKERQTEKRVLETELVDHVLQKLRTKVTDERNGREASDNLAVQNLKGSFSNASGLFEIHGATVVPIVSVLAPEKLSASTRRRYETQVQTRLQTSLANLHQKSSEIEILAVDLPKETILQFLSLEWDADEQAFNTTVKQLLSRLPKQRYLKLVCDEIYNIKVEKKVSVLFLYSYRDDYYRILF

| SMILES | IC50 |
| --- | --- |
| Cc1cnc(Nc2cc(C)n(C)n2)nc1-c1c[nH]c2c(N3Cc4c(/C=C/C(=O)NC(C)(C)C)cccc4C3=O)cccc12 [Example 371, (E)-N-(tert-butyl)-3-(2-(3-(2-((1,5-dimethyl-1H-pyrazol-3-yl)amino)-5-methylpyrimidin-4-yl)-1H-indol-7-yl)-1-oxoisoindolin-4-yl)acrylamide] | < 0.01 µM |
| Cc1cnc(Nc2cc(C)n(C)n2)nc1-c1c[nH]c2c(N3Cc4c(/C=C/C(=O)NCCO)cccc4C3=O)cccc12 [Example 372, (E)-3-(2-(3-(2-((1,5-dimethyl-1H-pyrazol-3-yl)amino)-5-methylpyrimidin-4-yl)-1H-indol-7-yl)-1-oxoisoindolin-4-yl)-N-(2-hydroxyethyl)acrylamide] | < 0.01 µM |
| CCCNC(=O)/C=C/c1cccc2c1CN(c1cccc3c(-c4nc(Nc5cc(C)n(C)n5)ncc4C)c[nH]c13)C2=O [Example 373, (E)-3-(2-(3-(2-((1,5-dimethyl-1H-pyrazol-3-yl)amino)-5-methylpyrimidin-4-yl)-1H-indol-7-yl)-1-oxoisoindolin-4-yl)-N-propylacrylamide] | < 0.01 µM |
| COCCNC(=O)/C=C/c1cccc2c1CN(c1cccc3c(-c4nc(Nc5cc(C)n(C)n5)ncc4C)c[nH]c13)C2=O [Example 374, (E)-3-(2-(3-(2-((1,5-dimethyl-1H-pyrazol-3-yl)amino)-5-methylpyrimidin-4-yl)-1H-indol-7-yl)-1-oxoisoindolin-4-yl)-N-(2-methoxyethyl)acrylamide] | < 0.01 µM |
| Cc1cnc(Nc2cc(C)n(C)n2)nc1-c1c[nH]c2c(N3Cc4c(/C=C/CO)cccc4C3=O)cccc12 [Example 375, (E)-2-(3-(2-((1,5-dimethyl-1H-pyrazol-3-yl)amino)-5-methylpyrimidin-4-yl)-1H-indol-7-yl)-4-(3-hydroxyprop-1-en-1-yl)isoindolin-1-one] | < 0.01 µM |
| CCNC(=O)/C(C)=C/c1cccc2c1CN(c1cccc3c(-c4nc(Nc5cc(C)n(C)n5)ncc4C)c[nH]c13)C2=O [Example 376, (E)-3-(2-(3-(2-((1,5-dimethyl-1H-pyrazol-3-yl)amino)-5-methylpyrimidin-4-yl)-1H-indol-7-yl)-1-oxoisoindolin-4-yl)-N-ethyl-2-methylacrylamide] | < 0.01 µM |
| Cc1cnc(Nc2cc(C)n(C)n2)nc1-c1c[nH]c2c(N3Cc4c(cccc4-c4ccccc4)C3=O)cccc12 [Example 377, 2-(3-(2-((1,5-dimethyl-1H-pyrazol-3-yl)amino)-5-methylpyrimidin-4-yl)-1H-indol-7-yl)-4-phenylisoindolin-1-one] | < 0.01 µM |
| Cc1cnc(Nc2cc(C)n(C)n2)nc1-c1c[nH]c2c(N3Cc4cc(-c5ccccc5)ccc4C3=O)cccc12 [Example 378, 2-(3-(2-((1,5-dimethyl-1H-pyrazol-3-yl)amino)-5-methylpyrimidin-4-yl)-1H-indol-7-yl)-5-phenylisoindolin-1-one] | > 1 µM |
| Cc1cnc(Nc2cc(C)n(C)n2)nc1-c1c[nH]c2c(N3Cc4ccc(-c5ccccc5)cc4C3=O)cccc12 [Example 379, 2-(3-(2-((1,5-dimethyl-1H-pyrazol-3-yl)amino)-5-methylpyrimidin-4-yl)-1H-indol-7-yl)-6-phenylisoindolin-1-one] | 0.1 to 1 µM |
| Cc1cnc(Nc2cc(C)n(C)n2)nc1-c1c[nH]c2c(N3Cc4ccc(-c5ccncc5)cc4C3=O)cccc12 [Example 380, 2-(3-(2-((1,5-dimethyl-1H-pyrazol-3-yl)amino)-5-methylpyrimidin-4-yl)-1H-indol-7-yl)-6-(pyridin-4-yl)isoindolin-1-one] | < 0.01 µM |
| Cc1cnc(Nc2cc(C)n(C)n2)nc1-c1c[nH]c2c(N3Cc4ccc(C5=CCNCC5)cc4C3=O)cccc12 [Example 381, 2-(3-(2-((1,5-dimethyl-1H-pyrazol-3-yl)amino)-5-methylpyrimidin-4-yl)-1H-indol-7-yl)-6-(1,2,3,6-tetrahydropyridin-4-yl)isoindolin-1-one] | < 0.01 µM |
| Cc1cnc(Nc2cc(C)n(C)n2)nc1-c1c[nH]c2c(N3Cc4cccc(-c5ccccc5)c4C3=O)cccc12 [Example 382, 2-(3-(2-((1,5-dimethyl-1H-pyrazol-3-yl)amino)-5-methylpyrimidin-4-yl)-1H-indol-7-yl)-7-phenylisoindolin-1-one] | 0.01 to 0.1 µM |
| Cc1cnc(Nc2cc(C)n(C)n2)nc1-c1c[nH]c2c(N3Cc4cccc(-c5ccncc5)c4C3=O)cccc12 [Example 383, 2-(3-(2-((1,5-dimethyl-1H-pyrazol-3-yl)amino)-5-methylpyrimidin-4-yl)-1H-indol-7-yl)-7-(pyridin-4-yl)isoindolin-1-one] | < 0.01 µM |
| Cc1cnc(Nc2cc(C)n(C)n2)nc1-c1c[nH]c2c(N3Cc4cccc(C5=CCCCC5)c4C3=O)cccc12 [Example 384, 7-(cyclohex-1-en-1-yl)-2-(3-(2-((1,5-dimethyl-1H-pyrazol-3-yl)amino)-5-methylpyrimidin-4-yl)-1H-indol-7-yl)isoindolin-1-one] | 0.1 to 1 µM |
| Cc1cnc(Nc2cc(C)n(C)n2)nc1-c1c[nH]c2c(N3Cc4cccc(C5=CCOCC5)c4C3=O)cccc12 [Example 385, 7-(3,6-dihydro-2H-pyran-4-yl)-2-(3-(2-((1,5-dimethyl-1H-pyrazol-3-yl)amino)-5-methylpyrimidin-4-yl)-1H-indol-7-yl)isoindolin-1-one] | 0.01 to 0.1 µM |
| Cc1cnc(Nc2cc(C)n(C)n2)nc1-c1c[nH]c2c(N3Cc4cccc(-c5cn[nH]c5)c4C3=O)cccc12 [Example 386, 2-(3-(2-((1,5-dimethyl-1H-pyrazol-3-yl)amino)-5-methylpyrimidin-4-yl)-1H-indol-7-yl)-7-(1H-pyrazol-4-yl)isoindolin-1-one] | 0.01 to 0.1 µM |
| Cc1cnc(Nc2cc(C)n(C)n2)nc1-c1c[nH]c2c(N3Cc4c(cccc4-c4ccncc4)C3=O)cccc12 [Example 387, 2-(3-(2-((1,5-dimethyl-1H-pyrazol-3-yl)amino)-5-methylpyrimidin-4-yl)-1H-indol-7-yl)-4-(pyridin-4-yl)isoindolin-1-one] | < 0.01 µM |
| Cc1cnc(Nc2cc(C)n(C)n2)nc1-c1c[nH]c2c(N3Cc4c(cccc4-c4cccnc4)C3=O)cccc12 [Example 388, 2-(3-(2-((1,5-dimethyl-1H-pyrazol-3-yl)amino)-5-methylpyrimidin-4-yl)-1H-indol-7-yl)-4-(pyridin-3-yl)isoindolin-1-one] | < 0.01 µM |
| Cc1cnc(Nc2cc(C)n(C)n2)nc1-c1c[nH]c2c(N3Cc4c(cccc4-c4cnn(C)c4)C3=O)cccc12 [Example 389, 2-(3-(2-((1,5-dimethyl-1H-pyrazol-3-yl)amino)-5-methylpyrimidin-4-yl)-1H-indol-7-yl)-4-(i-methyl-1H-pyrazol-4-yl)isoindolin-1-one] | < 0.01 µM |
| Cc1cnc(Nc2cc(C)n(C)n2)nc1-c1c[nH]c2c(N3Cc4c(cccc4-c4cn[nH]c4)C3=O)cccc12 [Example 390, 2-(3-(2-((1,5-dimethyl-1H-pyrazol-3-yl)amino)-5-methylpyrimidin-4-yl)-1H-indol-7-yl)-4-(1H-pyrazol-4-yl)isoindolin-1-one] | < 0.01 µM |
| Cc1cnc(Nc2cc(C)n(C)n2)nc1-c1c[nH]c2c(N3Cc4c(cccc4C4=CCCCC4)C3=O)cccc12 [Example 391, 4-(cyclohex-1-en-1-yl)-2-(3-(2-((1,5-dimethyl-1H-pyrazol-3-yl)amino)-5-methylpyrimidin-4-yl)-1H-indol-7-yl)isoindolin-t-one] | 0.01 to 0.1 µM |
| Cc1cnc(Nc2cc(C)n(C)n2)nc1-c1c[nH]c2c(N3Cc4c(cccc4C4=CCOCC4)C3=O)cccc12 [Example 392, 4-(3,6-dihydro-2H-pyran-4-yl)-2-(3-(2-((1,5-dimethyl-1H-pyrazol-3-yl)amino)-5-methylpyrimidin-4-yl)-1H-indol-7-yl)isoindolin-1-one] | < 0.01 µM |
| Cc1cnc(Nc2cc(C)n(C)n2)nc1-c1c[nH]c2c(N3Cc4c(cccc4-c4ccoc4)C3=O)cccc12 [Example 393, 2-(3-(2-((1,5-dimethyl-1H-pyrazol-3-yl)amino)-5-methylpyrimidin-4-yl)-1H-indol-7-yl)-4-(furan-3-yl)isoindolin-1-one] | < 0.01 µM |
| Cc1cnc(Nc2cc(C)n(C)n2)nc1-c1c[nH]c2c(N3Cc4c(cccc4C4=CCNCC4)C3=O)cccc12 [Example 394, 2-(3-(2-((1,5-dimethyl-1H-pyrazol-3-yl)amino)-5-methylpyrimidin-4-yl)-1H-indol-7-yl)-4-(1,2,3,6-tetrahydropyridin-4-yl)isoindolin-1-one] | < 0.01 µM |
| Cc1cnc(Nc2cc(C)n(C)n2)nc1-c1c[nH]c2c(N3Cc4c(cccc4-c4ccc(OC(F)(F)F)cc4)C3=O)cccc12 [Example 395, 2-(3-(2-((1,5-dimethyl-1H-pyrazol-3-yl)amino)-5-methylpyrimidin-4-yl)-1H-indol-7-yl)-4-(4-(trifluoromethoxy)phenyl)isoindolin-1-one] | 0.01 to 0.1 µM |
| Cc1cnc(Nc2cc(C)n(C)n2)nc1-c1c[nH]c2c(N3Cc4c(cccc4-c4ccc(N)cc4)C3=O)cccc12 [Example 396, 4-(4-aminophenyl)-2-(3-(2-((1,5-dimethyl-1H-pyrazol-3-yl)amino)-5-methylpyrimidin-4-yl)-1H-indol-7-yl)isoindolin-1-one] | < 0.01 µM |
| Cc1cnc(Nc2cc(C)n(C)n2)nc1-c1c[nH]c2c(N3Cc4c(cccc4C4=CCN(C(=O)OC(C)(C)C)CC4)C3=O)cccc12 [Example 397, tert-butyl 4-(2-(3-(2-((1,5-dimethyl-1H-pyrazol-3-yl)amino)-5-methylpyrimidin-4-yl)-1H-indol-7-yl)-1-oxoisoindolin-4-yl)-3,6-dihydropyridine-1(2H)-carboxylat] | < 0.01 µM |
| Cc1cnc(Nc2cc(C)n(C)n2)nc1-c1c[nH]c2c(N3Cc4c(cccc4-c4ccc(NC(=O)OC(C)(C)C)cc4)C3=O)cccc12 [Example 398, tert-butyl (4-(2-(3-(2-((1,5-dimethyl-1H-pyrazol-3-yl)amino)-5-methylpyrimidin-4-yl)-1H-indol-7-yl)-1-oxoisoindolin-4-yl)phenyl)carbamate] | 0.01 to 0.1 µM |
